# No end group written: not given here.
# Legend:
# DPP IV [1] = molecular target: T1, DPP IV (Sus scrofa, UniProt P22411); experiment: Degradation of GIP and analogues by DPP IV (HPLC); type: in vitro ADME
# T1 construct: purchased Sigma (Poole, Dorset, UK)
# Outline: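 GIP or Tyr1-glucitol GIP (1 mmol/l) incubated at 37 °C with DPP IV (5 mU) in 50 mmol/l triethanolamine-HCl pH 7.8; stopped with TFA at 0, 2, 4 and 12 h. Products separated by reverse-phase HPLC (acetonitrile/TFA gradient, 206 nm), peak areas integrated, identity by ESI-MS.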
# DPP IV [2] = molecular target: T1, DPP IV; experiment: DPP IV degradation studies of fatty acid derivatised GIP analogues; type: in vitro ADME, porcine; details: pig, isolated enzyme dpp iv, pH 7.8, incubation with DPP IV, read-out: % Intact peptide remaining after time (hours)
# Method: DPP IV degradation studies. GIP and fatty acid derivatised GIP analogues were incubated at 37° C. with purified porcine dipeptidylpeptidase IV (5 mU in 50 mmol/l triethanolamine-HCl; pH 7.8) for 0, 2, 4, 8 and 24 hours (final peptide concentration 2 mmol/l). The reactions were subsequently terminated by addition of 10% (v/v) TFA/water and the reaction products separated using HPLC. […] HPLC peak area data were used to calculate % intact peptide remaining throughout the incubation.
# human GIP receptor = molecular target: T2, human GIP receptor (Homo sapiens, UniProt P48546); experiment: Intracellular cyclic AMP production in GIP-receptor transfected CHL fibroblasts; type: cell-based
# T2 construct: expressed in transfected cells; host or cells: Chinese hamster lung (CHL) fibroblasts, stably transfected
# T2 sequence (P48546 22-466): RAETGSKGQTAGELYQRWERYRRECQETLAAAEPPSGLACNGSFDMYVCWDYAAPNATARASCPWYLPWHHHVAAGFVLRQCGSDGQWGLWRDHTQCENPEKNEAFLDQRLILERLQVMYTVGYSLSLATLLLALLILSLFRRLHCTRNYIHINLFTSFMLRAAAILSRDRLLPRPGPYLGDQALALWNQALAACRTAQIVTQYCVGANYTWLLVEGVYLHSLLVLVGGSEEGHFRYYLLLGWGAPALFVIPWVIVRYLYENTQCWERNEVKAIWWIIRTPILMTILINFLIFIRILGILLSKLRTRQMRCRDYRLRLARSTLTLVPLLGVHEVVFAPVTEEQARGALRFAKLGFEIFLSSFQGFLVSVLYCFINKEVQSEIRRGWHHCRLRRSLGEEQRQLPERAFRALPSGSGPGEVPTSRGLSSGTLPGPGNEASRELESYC
# Method: In vitro biological activity. […] In brief, CHL cells were seeded into 12-well plates (Nünc, Roskilde, Denmark) at a density of 10^5 cells per well and allowed to grow for 48 hours before being loaded with tritiated adenine (2 μCi; TRK311; Amersham, Buckinghamshire, UK). The cells were then incubated at 37° C. for 6 hours in 1 ml DMEM supplemented with 0.5% (w/v) BSA and subsequently washed twice with HBS buffer (pH 7.4). […] The medium was subsequently removed and the cells lysed with 1 ml of 5% TCA containing 0.1 mmol/l unlabelled cyclic AMP and 0.1 mmol/l unlabelled ATP.
# BRIN-BD11 cells = experiment: GIP-stimulated insulin release from BRIN-BD11 cells (antagonism); type: cell-based; details: 5.6 mM glucose, native GIP 10^-7 M
# Method: Tissue culture. […] Cells were maintained in sterile tissue culture flasks (Corning Glass Works, Sunderland, UK) at 37° C. in an atmosphere of 5% CO2 and 95% air using an LEEC incubator (Laboratory Technical Engineering, Nottingham, UK). Acute studies of insulin release. Insulin release from BRIN-BD11 cells was determined using cell monolayers ([…]. et al., 1996, Diabetes 45:1132-1140). Cells were harvested with the aid of trypsin/EDTA (Gibco), seeded into 24-multiwell plates (Nunc, Roskilde, Denmark) at a density of 1.0×10^5 cells per well, and allowed to attach overnight at 37° C.
# [3] = isolated enzyme dpp iv, pH 7.8, % Intact peptide remaining after time (h)
# T1 sequence (P22411 whole entry): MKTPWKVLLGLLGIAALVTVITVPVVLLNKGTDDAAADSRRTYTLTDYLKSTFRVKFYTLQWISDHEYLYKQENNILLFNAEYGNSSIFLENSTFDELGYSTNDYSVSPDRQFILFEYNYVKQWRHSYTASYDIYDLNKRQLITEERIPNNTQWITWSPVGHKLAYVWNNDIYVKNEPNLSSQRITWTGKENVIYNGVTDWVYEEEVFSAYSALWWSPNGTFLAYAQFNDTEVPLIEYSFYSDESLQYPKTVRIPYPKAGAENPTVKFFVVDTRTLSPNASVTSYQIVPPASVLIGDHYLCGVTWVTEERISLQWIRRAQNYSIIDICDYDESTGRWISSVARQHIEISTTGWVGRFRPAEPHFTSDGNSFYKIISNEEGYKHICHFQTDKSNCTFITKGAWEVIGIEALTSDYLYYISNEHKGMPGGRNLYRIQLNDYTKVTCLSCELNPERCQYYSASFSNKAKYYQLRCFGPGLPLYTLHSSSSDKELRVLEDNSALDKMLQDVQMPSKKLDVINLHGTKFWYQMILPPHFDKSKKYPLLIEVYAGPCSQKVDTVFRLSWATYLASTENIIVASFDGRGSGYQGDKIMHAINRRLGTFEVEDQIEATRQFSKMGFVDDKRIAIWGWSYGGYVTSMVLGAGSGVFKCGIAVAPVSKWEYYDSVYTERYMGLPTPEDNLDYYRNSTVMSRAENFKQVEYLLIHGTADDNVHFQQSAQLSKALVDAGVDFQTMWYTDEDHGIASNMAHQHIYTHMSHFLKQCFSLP
compound,measurement,setting,value
"CC[C@H](C)[C@H](NC(=O)[C@H](CO)NC(=O)[C@H](Cc1ccc(O)cc1)NC(=O)[C@H](CC(=O)O)NC(=O)[C@H](CO)NC(=O)[C@@H](NC(=O)[C@H](Cc1ccccc1)NC(=O)[C@@H](NC(=O)CNC(=O)[C@H](CCC(=O)O)NC(=O)[C@H](C)NC(=O)[C@@H](N)Cc1ccc(O)cc1)[C@@H](C)O)[C@@H](C)CC)C(=O)N[C@@H](C)C(=O)N[C@@H](CCSC)C(=O)N[C@@H](CC(=O)O)C(=O)N[C@@H](CCCCN)C(=O)N[C@H](C(=O)N[C@@H](Cc1c[nH]cn1)C(=O)N[C@@H](CCC(N)=O)C(=O)N[C@@H](CCC(N)=O)C(=O)N[C@@H](CC(=O)O)C(=O)N[C@@H](Cc1ccccc1)C(=O)N[C@H](C(=O)N[C@@H](CC(N)=O)C(=O)N[C@@H](Cc1c[nH]c2ccccc12)C(=O)N[C@@H](CC(C)C)C(=O)N[C@@H](CC(C)C)C(=O)N[C@@H](C)C(=O)N[C@@H](CCC(N)=O)C(=O)N[C@@H](CCCCN)C(=O)NCC(=O)N[C@@H](CCCCN)C(=O)N[C@@H](CCCCN)C(=O)N[C@@H](CC(N)=O)C(=O)N[C@@H](CC(=O)O)C(=O)N[C@@H](Cc1c[nH]c2ccccc12)C(=O)N[C@@H](CCCCN)C(=O)N[C@@H](Cc1c[nH]cn1)C(=O)N[C@@H](CC(N)=O)C(=O)N[C@H](C(=O)N[C@H](C(=O)N[C@@H](CCC(N)=O)C(=O)O)[C@@H](C)O)[C@@H](C)CC)C(C)C)[C@@H](C)CC [GIP 1–42, reference compound]",% Intact peptide remaining after time (h),DPP IV [1]; 0 h,100%
same,"metabolised at 12 h, 1 mmol/l","DPP IV [1]; isolated enzyme dpp iv, pH 7.8",60%
same,"remaining at 2 h, 1 mmol/l",DPP IV [1]; [3],52 ± 1%
same,"remaining at 4 h, 1 mmol/l",DPP IV [1]; [3],23 ± 1%
same,"remaining at 8 h, 1 mmol/l",DPP IV [1]; [3],0%
same,"remaining at 24 h, 1 mmol/l",DPP IV [1]; [3],0%
same,"remaining at 4 h, 1 mmol/l","DPP IV [1]; isolated enzyme dpp iv, pH 7.8, % intact after incubation with DPP IV",54%
CCCCCCCCCCCCCCCC(=O)NCCCC[C@H](NC(=O)[C@H](Cc1c[nH]c2ccccc12)NC(=O)[C@H](CC(=O)O)NC(=O)[C@H](CC(N)=O)NC(=O)[C@H](CCCCN)NC(=O)[C@H](CCCCN)NC(=O)CNC(=O)[C@H](CCCCN)NC(=O)[C@H](CCC(N)=O)NC(=O)[C@H](C)NC(=O)[C@H](CC(C)C)NC(=O)[C@H](CC(C)C)NC(=O)[C@H](Cc1c[nH]c2ccccc12)NC(=O)[C@H](CC(N)=O)NC(=O)[C@@H](NC(=O)[C@H](Cc1ccccc1)NC(=O)[C@H](CC(=O)O)NC(=O)[C@H](CCC(N)=O)NC(=O)[C@H](CCC(N)=O)NC(=O)[C@H](Cc1c[nH]cn1)NC(=O)[C@@H](NC(=O)[C@H](CCCCN)NC(=O)[C@H](CC(=O)O)NC(=O)[C@H](CCSC)NC(=O)[C@H](C)NC(=O)[C@@H](NC(=O)[C@H](CO)NC(=O)[C@H](Cc1ccc(O)cc1)NC(=O)[C@H](CC(=O)O)NC(=O)[C@H](CO)NC(=O)[C@@H](NC(=O)[C@H](Cc1ccccc1)NC(=O)[C@@H](NC(=O)CNC(=O)[C@H](CCC(=O)O)NC(=O)[C@H](C)NC(=O)[C@H](Cc1ccc(O)cc1)NC(C)=O)[C@@H](C)O)[C@@H](C)CC)[C@@H](C)CC)[C@@H](C)CC)C(C)C)C(=O)N[C@@H](Cc1c[nH]cn1)C(=O)N[C@@H](CC(N)=O)C(=O)N[C@H](C(=O)N[C@H](C(=O)N[C@@H](CCC(N)=O)C(=O)O)[C@@H](C)O)[C@@H](C)CC [N-AcGIP(LysPAL^37)],"remaining at 2 h, 2 mmol/l",DPP IV [2]; 2 h,100%
same,"remaining at 8 h, 2 mmol/l",DPP IV [2]; 8 h,100%
same,"remaining at 24 h, 2 mmol/l",DPP IV [2]; 24 h,100%
same,EC50,human GIP receptor,0.013 µM
YAPGTFISDYSIAMDKIHQQDFVNWLLAQKGKKNDWKHNITQ [(Pro^3)GIP],inhibition of GIP-stimulated insulin secretion,BRIN-BD11 cells,inhibited in dose-dependent fashion

# Source: patent publication US7875587B2, “Peptide analogues of GIP for treatment of diabetes, insulin resistance and obesity” (UUTECH Limited, priority 2004, dated 2011)
